This is an account of results in patent US9926261B2, “Bacterial efflux pump inhibitors” (Rutgers, The State University of New Jersey, priority 2015, dated 2018).

The assay relates to Escherichia coli W4573. Briefly: Test A. Minimum Inhibitory Concentration (MIC)-based assay for efflux pump inhibition (enhancement of minocycline MIC). As to conditions: ratio of minocycline MIC in absence of test compound to minocycline MIC in presence of test compound, test compound 12.5 μg/mL, CAMH broth, 24 hours at 37° C. It counts as cell-based. Here is the method:
Test A. Minimum Inhibitory Concentration (MIC)-Based Assay for Efflux Pump Inhibition:
MIC-based assays were used to evaluate the impact of potential efflux pump inhibiting (EPI) compounds on the MIC of minocycline, an antibiotic known to be a substrate for Gram-negative bacterial efflux pumps. The assays were conducted in accordance with Clinical and Laboratory Standards Institute (CLSI) guidelines for broth microdilution, with the modification that assays were conducted in the presence and absence of the test EPI compounds. When present, the EPI compounds were added to cation-adjusted Mueller-Hinton (CAMH) broth (Becton, Dickinson and Co., Franklin Lakes, N.J.) at a final concentration of 12.5 μg/mL.
Log-phase Gram-negative bacteria were added to 96-well microtiter plates (at 5×10^5 colony forming units (CFU) per mL) containing two-fold serial dilutions of minocycline in CAMH broth either in the absence or presence of the test EPI compounds. In all assays, each serial dilution of minocycline was present in duplicate. The final volume in each well was 0.1 mL, and the microtiter plates were incubated aerobically for 24 hours at 37° C. Bacterial growth was then monitored by measuring the optical density (OD) at 600 nm using a VersaMax® plate reader (Molecular Devices, Inc., Sunnyvale, Calif.), with the MIC being defined as the lowest compound concentration at which growth was ≥90% inhibited compared to antibiotic-free control. The following Gram-negative bacterial strains were included in these assays: • Escherichia coli W4573, ATCC 25922, and ATCC BAA-201 (an extended spectrum β-lactamase (ESBL)-producing strain that expresses the TEM-3 β-lactamase). • Klebsiella pneumoniae ATCC 13883 and ATCC 700603 (an ESBL-producing strain that expresses the SHV-18 β-lactamase). • Pseudomonas aeruginosa ATCC 27853. The efflux pump mutant E. coli strain N43 (acrA1) was used as a positive control.
The enhancement is the ratio of the minocycline MIC in the absence of test compound to the minocycline MIC in the presence of test compound.
With `Cl.Cl.NCCC[C@H](N)CNC(=O)c1ccccc1C(F)(F)F` [Example 1, (S)-5-(2-(trifluoromethyl)benzamido)pentane-1,4-diaminium chloride], the Enhancement is recorded as 1.
Under `Cl.Cl.NCCC[C@H](N)CNC(=O)c1cccc(C(F)(F)F)c1` [Example 2, (S)-5-(3-(trifluoromethyl)benzamido)pentane-1,4-diaminium chloride] stands 2.
Consider `Cl.Cl.NCCC[C@H](N)CNC(=O)c1ccc(C(F)(F)F)cc1` [Example 3, (S)-5-(4-(trifluoromethyl)benzamido)pentane-1,4-diaminium chloride], for which the Enhancement is given as 4.
The same measure for `Cl.Cl.NCCC[C@H](N)CNC(=O)c1ccccc1-c1ccccc1` [Example 4, (S)-5-([1,1′-biphenyl]-2-carboxamido)pentane-1,4-diaminium chloride]: 2.
The same measure for `Cl.Cl.NCCC[C@H](N)CNC(=O)c1cc(C(F)(F)F)ccc1C(F)(F)F` [Example 5, (S)-5-(2,5-bis(trifluoromethyl)benzamido)pentane-1,4-diaminium chloride]: 2; for `Cl.Cl.NCCC[C@H](N)CNC(=O)c1ccc(C(F)(F)F)c(C(F)(F)F)c1` [Example 6, (S)-5-(3,4-Bis(trifluoromethyl)benzamido)pentane-1,4-diaminium chloride]: 32; for `Cl.Cl.NCCC[C@H](N)CNC(=O)c1cc(C(F)(F)F)cc(C(F)(F)F)c1` [Example 7, (S)-5-(3,5-bis(trifluoromethyl)benzamido)pentane-1,4-diaminium chloride]: 16.
The same measure for `Cl.Cl.NCCC[C@@H](N)CNC(=O)c1cc(C(F)(F)F)cc(C(F)(F)F)c1` [Example 8, (R)-5-(3,5-bis(trifluoromethyl)benzamido)pentane-1,4-diaminium chloride]: 8.
As to `Cl.Cl.NCC[C@H](N)CNC(=O)c1cc(C(F)(F)F)cc(C(F)(F)F)c1` [Example 9, (S)-4-(3,5-bis(trifluoromethyl)benzamido)butane-1,3-diaminium chloride], the Enhancement is reported as 16.
The same measure for `CC(C)(C)c1cc(C(=O)NC[C@@H](N)CCCN)cc(C(C)(C)C)c1.Cl.Cl` [Example 10, (S)-5-(3,5-di-tert-butylbenzamido)pentane-1,4-diaminium chloride]: 64; for `Cl.Cl.NCCC[C@H](N)CNC(=O)c1cc(-c2ccccc2)cc(-c2ccccc2)c1` [Example 11, (S)-5-([1,1′:3′,1″-terphenyl]-5′-carboxamido)pentane-1,4-diaminium chloride]: 128.
The same measure for `NC[C@@H](N)CCCNC(=O)c1cc(-c2ccccc2)cc(-c2ccccc2)c1` [Example 12, (S)-5-([1,1′:3′,1″-terphenyl]-5′-carboxamido)pentane-1,2-diaminium chloride]: 2; for `Cl.Cl.NCCC[C@H](N)CNC(=O)c1cc(-c2ccc(F)cc2)cc(-c2ccc(F)cc2)c1` [Example 13, (S)-5-(4,4″-difluoro-[1,1′:3′,1″-terphenyl]-5′-carboxamido)pentane-1,4-diaminium chloride]: 128.
